IC50, CC50 and Activity data for 18 compounds are collected here from ChEMBL document CHEMBL4130433, “Acridone-pyrimidine hybrids- design, synthesis, cytotoxicity studies in resistant and sensitive cancer cells and molecular docking studies” (Eur J Med Chem, 2017).

In general, IC50 refers to the concentration that gives 50% inhibition. Broadly, the CC50 is the concentration at which the toxic effect on the cells reaches its halfway point.

One data set concerns K562. Kind of data set: Cytotoxicity against human K562 cells by MTT assay. Type of data set: functional, cell-based. A general note: Tetrazolium dyes change colour on reduction, which living cells bring about.
The subject of the next data set is HeLa. Kind of data set: Antiproliferative activity against human HeLa cells after 72 hrs by MTT assay. Type of data set: functional, cell-based.
Data set [1] addresses RAC-alpha serine/threonine-protein kinase (Homo sapiens, UniProt P31749). Kind of data set: Inhibition of PH domain lacking AKT1 (unknown origin) using Tamara-labeled GRPRTSSFAEG peptide as substrate after 90 mins by fluorescence polarization IMAP assay. In general terms: In fluorescence polarisation assays a small probe gives low polarisation when free and higher when bound to something large.

A short description of data set [2]: Cytotoxicity against African green monkey Vero cells after 72 hrs by MTT assay. The data set is classed as cell-based. To be noted: chlorocebus sabaeus.
In data set [3] the test system is MCF7. Kind of data set: Antiproliferative activity against human MCF7 cells after 72 hrs by MTT assay. Type of data set: functional, cell-based. To be noted: MCF7, 72 h.
The test system of a further data set is A549. Kind of data set: cells. To be noted: Homo sapiens, A549, 72 h.
In data set [4] the test system is MDA-MB-231. Kind of data set: Antiproliferative activity against human MDA-MB-231 cells after 72 hrs by MTT assay. The data set is classed as functional, cell-based. To be noted: MDA-MB-231, 72 h.
For data set [5], the system named is MDA-MB-231. Kind of data set: Effect on total AKT protein expression in human MDA-MB-231 cells at antiproliferative IC50 after 48 hrs by Western blot method. Type of data set: cell-based. To be noted: mda-mb-231, 48 h. Background: A western blot detects proteins with antibodies after separation by electrophoresis.
Data set [6] has as its system MCF7. Kind of data set: Cytotoxicity against human MCF7 cells by MTT assay. The data set is classed as functional, cell-based.
For data set [7], the system named is 2008. Kind of data set: Antiproliferative activity against resistant human 2008 cells clone 6 harboring MRP1 after 72 hrs by MTT assay. To be noted: Homo sapiens, 2008, 72 h. Type of data set: functional, cell-based.
Data set [8] relates to SW1573. Kind of data set: Antiproliferative activity against resistant human SW1573 2R 120 cells harboring MRP1 after 72 hrs by MTT assay. The note with it: SW1573, 72 h. Type of data set: functional, cell-based.
The test system of data set [9] is SW1573. Kind of data set: Antiproliferative activity against resistant human SW1573 2R 160 cells harboring P-gp after 72 hrs by MTT assay. The data set is classed as functional, cell-based. The note with it: SW1573, 72 h.
Data set [10] deals with 2008. Kind of data set: Antiproliferative activity against resistant human 2008 cells clone 4 harboring MRP1 after 72 hrs by MTT assay. To be noted: Homo sapiens, 2008, 72 h. The data set is classed as functional, cell-based.
The test system of data set [11] is SW1573. Kind of data set: Antiproliferative activity against human SW1573 cells after 72 hrs by MTT assay. The data set is classed as functional, cell-based. The note with it: SW1573, 72 h.
The nature of data set [12]: Antiproliferative activity against human MCF7/DX cells after 72 hrs by MTT assay. Type of data set: functional, cell-based.
Data set [13] in a line: Antiproliferative activity against human MCF7/MX cells after 72 hrs by MTT assay. The data set is classed as functional, cell-based.
Data set [14] deals with 2008. Kind of data set: Antiproliferative activity against human 2008 cells after 72 hrs by MTT assay. The data set is classed as functional, cell-based. The note with it: Homo sapiens, 2008, 72 h.

Sequence of RAC-alpha serine/threonine-protein kinase (P31749 whole entry, the tested form may be a part): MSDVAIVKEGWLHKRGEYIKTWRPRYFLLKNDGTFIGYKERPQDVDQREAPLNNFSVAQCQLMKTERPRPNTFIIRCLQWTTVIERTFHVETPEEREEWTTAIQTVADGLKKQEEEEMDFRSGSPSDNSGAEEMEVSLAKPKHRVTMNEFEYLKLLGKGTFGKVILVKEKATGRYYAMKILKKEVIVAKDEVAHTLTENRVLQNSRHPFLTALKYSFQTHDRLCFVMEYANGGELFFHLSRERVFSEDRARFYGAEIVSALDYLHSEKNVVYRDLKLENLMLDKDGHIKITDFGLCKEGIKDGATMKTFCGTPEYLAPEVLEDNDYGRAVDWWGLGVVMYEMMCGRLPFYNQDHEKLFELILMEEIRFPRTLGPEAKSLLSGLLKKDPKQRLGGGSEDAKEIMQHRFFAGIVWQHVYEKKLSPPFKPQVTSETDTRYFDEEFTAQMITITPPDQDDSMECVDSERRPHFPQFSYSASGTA
Description for A549: Antiproliferative activity against human A549 cells after 72 hrs by MTT assay

The compound `Cc1cccc2c(=O)c3c(NCc4ccccc4)ccc(C(=O)NCCN(C)C)c3[nH]c12` had an IC50 in the data set on K562 of 0.46 µM.

Turning to `CCOC(=O)c1c(C)nc(NNC(=O)c2cccc3c(=O)c4ccccc4[nH]c23)nc1-c1ccc(F)cc1`, the IC50 in the data set on HeLa was 47.1 µM; in data set [1], 0.176 µM; in the data set on MCF7 [3] it was greater than 100 µM; in the data set with A549, greater than 100 µM; in the data set on MDA-MB-231 [4], greater than 100 µM. The CC50 at 72 h in data set [2] came to 58.2 µM.

As to `CCOC(=O)c1c(C)nc(NNC(=O)c2cccc3c(=O)c4ccccc4[nH]c23)nc1-c1ccccc1F`, the IC50 in the data set on HeLa is 52.6 µM; in data set [1] it was 0.0082 µM; in the data set with MCF7 [3], 7.3 µM; with A549, 3.12 µM; in the data set on MDA-MB-231 [4], 6.28 µM. Moreover, half-maximal cytotoxicity in data set [2] (CC50 at 72 h) was put at 61.3 µM. Further, the Activity entry with MDA-MB-231 [5] is “Non-Toxic”.

In the case of `CCOC(=O)c1c(C)nc(NNC(=O)c2cccc3c(=O)c4ccccc4[nH]c23)nc1-c1ccc(C)cc1`, the IC50 in the data set with HeLa came out at 48.5 µM; in data set [1], 0.98 µM; in the data set on MCF7 [3], 11.4 µM; in the data set with A549, 9.74 µM; in the data set with MDA-MB-231 [4], 5.6 µM. The same compound came in with a CC50 at 72 h in [2] of 72.3 µM.

Consider `COC(=O)c1c(C)nc(NNC(=O)c2cccc3c(=O)c4ccccc4[nH]c23)nc1-c1ccc(OC)cc1`, for which the IC50 is 37.4 µM in the data set on HeLa; 0.64 µM in data set [1]; 52.1 µM in the data set on MCF7 [3]; 44.8 µM in the data set with A549; 74.5 µM with MDA-MB-231 [4]. This compound also yielded a CC50 at 72 h in [2] of 86.2 µM.

Turning to `CCOC(=O)c1c(C)nc(NNC(=O)c2cccc3c(=O)c4ccccc4[nH]c23)nc1-c1cccc(OC)c1`, the IC50 in the data set with HeLa is greater than 100 µM; in [1] it was 0.251 µM; with MCF7 [3] it was greater than 100 µM; in the data set on A549, greater than 100 µM; with MDA-MB-231 [4], greater than 100 µM. The compound also displayed a CC50 at 72 h in [2] of 64.1 µM.

As to `CCOC(=O)c1c(C)nc(NNC(=O)c2cccc3c(=O)c4ccccc4[nH]c23)nc1-c1ccccc1`, the IC50 in the data set on HeLa was 45.8 µM; in data set [1], 0.0047 µM; with MCF7 [3], 15.6 µM; in the data set with A549 it was 8.49 µM; with MDA-MB-231 [4], 19.6 µM. The midpoint of cytotoxicity in data set [2], the CC50 at 72 h, lay at 92.8 µM. For the same compound, in the data set on MDA-MB-231 [5], the Activity entry was “Non-Toxic”.

On to `COC(=O)c1c(C)nc(NNC(=O)c2cccc3c(=O)c4ccccc4[nH]c23)nc1-c1ccccc1F`, for which the IC50 came to 67.3 µM with HeLa; 0.432 µM in [1]; 25.7 µM in the data set with MCF7 [3]; 20.6 µM in the data set on A549; 41.6 µM in the data set on MDA-MB-231 [4]. This compound also came in with a CC50 at 72 h in [2] of 76.1 µM.

The compound `COc1ccc(Cn2cc(Cn3c4ccccc4c(=O)c4cc(OC)ccc43)nn2)cc1` came in with an IC50 in the data set with MCF7 [6] of 11 µM.

Turning to `COC(=O)c1c(C)nc(NNC(=O)c2cccc3c(=O)c4ccccc4[nH]c23)nc1-c1ccc(F)cc1`, the IC50 in the data set on 2008 [7] is 27 µM; in the data set on SW1573 [8], greater than 100 µM; with HeLa, 44.5 µM; with SW1573 [9], 62 µM; in data set [1] it was 0.313 µM; with 2008 [10] it was 24 µM. Moreover, the IC50 in the data set on SW1573 [11] stood at 75 µM; in [12], 45 µM; in [13], 30 µM; in the data set with 2008 [14] it was 23 µM; with MCF7 [3], 33 µM; with A549, 36.5 µM. The same compound displayed an IC50 with MDA-MB-231 [4] of 56.2 µM. This compound gave a CC50 at 72 h in [2] of 78.2 µM.

On to `CCOC(=O)c1c(C)nc(NNC(=O)c2cccc3c(=O)c4ccccc4[nH]c23)nc1-c1ccc(OC)cc1`, for which the IC50 with HeLa turned out to be 74.5 µM; in [1] it was 0.00172 µM; in the data set with MCF7 [3] it was 10.5 µM; in the data set with A549 it was 3.26 µM; in the data set with MDA-MB-231 [4], 7.12 µM. In addition, the CC50 at 72 h in data set [2] amounted to 82.3 µM. The Activity entry in the data set on MDA-MB-231 [5] is “Non-Toxic”.

For `COC(=O)c1c(C)nc(NNC(=O)c2cccc3c(=O)c4ccccc4[nH]c23)nc1-c1cccc(OC)c1`, the IC50 was 72 µM in the data set with 2008 [7]; greater than 100 µM in the data set with SW1573 [8]; 72.6 µM in the data set with HeLa; 10 µM with SW1573 [9]; 0.482 µM in data set [1]; 74 µM with 2008 [10]. For the same compound, the IC50 in the data set on SW1573 [11] came to 5 µM; in [12], 78 µM; in [13], 30 µM; with 2008 [14] it was 34 µM; with MCF7 [3] it was 32 µM; in the data set with A549, 27.2 µM. Besides, in the data set on MDA-MB-231 [4], the IC50 turned out to be 58.3 µM. In [2], this compound had a CC50 at 72 h of 95.1 µM.

Consider `CCOC(=O)c1c(C)nc(NNC(=O)c2cccc3c(=O)c4ccccc4[nH]c23)nc1-c1ccc(OC)c(OC)c1`, for which the IC50 was determined as 19 µM in the data set on 2008 [7]; 38 µM with SW1573 [8]; 57.5 µM in the data set with HeLa; 62 µM in the data set on SW1573 [9]; 0.115 µM in data set [1]; 25 µM in the data set on 2008 [10]. The IC50 in the data set with SW1573 [11] worked out at 45 µM; in [12], 30 µM; in [13], 38 µM; in the data set on 2008 [14], 15 µM; in the data set on MCF7 [3], 26 µM; in the data set on A549 it was 41.7 µM. The compound further had an IC50 with MDA-MB-231 [4] of 47.3 µM. The CC50 at 72 h in [2] amounted to 84.3 µM.

For the compound `COC(=O)c1c(C)nc(NNC(=O)c2cccc3c(=O)c4ccccc4[nH]c23)nc1-c1ccccc1`, the IC50 in the data set with HeLa was found to be 56.7 µM; in data set [1] it was 0.056 µM; in the data set on MCF7 [3] it was 36.2 µM; in the data set on A549, 20.4 µM; in the data set with MDA-MB-231 [4] it was 47.4 µM. Moreover, in data set [2], the CC50 at 72 h was determined as 80 µM.

As to `CCOC(=O)c1c(C)nc(NNC(=O)c2cccc3c(=O)c4ccccc4[nH]c23)nc1CC(C)C`, the IC50 with HeLa was 39.1 µM; in [1], 0.012 µM; in the data set with MCF7 [3], 4.32 µM; in the data set on A549, 3.9 µM; in the data set with MDA-MB-231 [4], 8.61 µM. The same compound showed a CC50 at 72 h in data set [2] of 78.2 µM. For the same compound, in the data set on MDA-MB-231 [5], the Activity result is recorded as “Non-Toxic”.

Take `COC(=O)c1c(C)nc(NNC(=O)c2cccc3c(=O)c4ccccc4[nH]c23)nc1-c1ccc(C)cc1`: the IC50 is 76.4 µM in the data set on HeLa; 0.738 µM in data set [1]; 45.2 µM in the data set on MCF7 [3]; 40.5 µM in the data set on A549; 23.7 µM with MDA-MB-231 [4]. In addition, in [2], the CC50 at 72 h came out at 64.2 µM.

Take `COc1cccc2c1C(=O)c1c(O)c3c(c(O)c1C2=O)C[C@@](O)(C(=O)CO)C[C@@H]3O[C@H]1C[C@H](N)[C@H](O)[C@H](C)O1` [DOXORUBICIN]: the Activity result with MDA-MB-231 [5] was “Non-Toxic”. Besides, half-maximal inhibition with A549 (IC50) was put at 10.2 µM.

In the data set with A549, `C#Cc1cccc(Nc2ncnc3cc(OCCOC)c(OCCOC)cc23)c1` [ERLOTINIB] yielded an IC50 of 21.3 µM.
